± gives the standard deviation of the averaged measurements.
Assays:
[1] = tested on: Homo sapiens (human subject panel, olfactory perception); experiment: perceived odor intensity rating (rating 0-100); higher = stronger perceived smell
Experimental: (§1)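 Human olfactory psychophysics. 55 healthy subjects (after excluding 6 low performers) sniffed 1 mL of each odorant diluted in paraffin oil (vials, two dilutions per molecule, 20 molecules presented twice). Each subject rated intensity, pleasantness and familiarity on a 0-100 slider, starting at 50 and required to move. Ratings were given only when the subject reported detecting a smell; per-subject ratings are averaged over subjects.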

[2] = tested on: Homo sapiens (human subject panel, olfactory perception); experiment: perceived odor familiarity rating (rating 0-100); higher = more familiar
Experimental: as §1

[3] = tested on: Homo sapiens (human subject panel, olfactory perception); experiment: perceived odor pleasantness rating (rating 0-100); higher = more pleasant
Experimental: as §1

[4] = odor dilution in paraffin oil: 1/1,000
[5] = odor dilution in paraffin oil: 1/100,000
[6] = odor dilution in paraffin oil: 1/10,000,000
[7] = odor dilution in paraffin oil: 1/10

| Structure (SMILES) | perceived odor intensity rating [1, 4] | perceived odor intensity rating [1, 5] | perceived odor familiarity rating [2, 4] | perceived odor familiarity rating [2, 5] | perceived odor pleasantness rating [3, 4] | perceived odor pleasantness rating [3, 5] | perceived odor intensity rating [1, 6] | perceived odor familiarity rating [2, 6] | perceived odor pleasantness rating [3, 6] | perceived odor intensity rating [1, 7] | perceived odor familiarity rating [2, 7] | perceived odor pleasantness rating [3, 7] |
| --- | --- | --- | --- | --- | --- | --- | --- | --- | --- | --- | --- | --- |
| C=Cc1scnc1C [4-Methyl-5-vinylthiazole] | 80.5 ± 21 | 43.5 ± 32 | 41.4 ± 34 | 40.3 ± 33 | 21.3 ± 22 | 38.6 ± 27 |  |  |  |  |  |  |
| COc1ccc(C)cc1 [4-Methylanisole] | 70.5 ± 21 | 44.8 ± 31 | 48.2 ± 31 | 50.2 ± 28 | 47.7 ± 28 | 56.3 ± 28 |  |  |  |  |  |  |
| CC1CCC(=O)CC1 [4-Methylcyclohexanone] | 60.9 ± 31 | 32.5 ± 28 | 46 ± 32 | 49.2 ± 28 | 36.9 ± 25 | 64.6 ± 20 |  |  |  |  |  |  |
| Cc1ccnc2ccccc12 [4-Methylquinoline] |  | 38.7 ± 30 |  | 33.1 ± 30 |  | 40.5 ± 21 | 20.8 ± 22 | 34.8 ± 28 | 49.5 ± 24 |  |  |  |
| Cc1cscn1 [4-Methylthiazole] | 60.7 ± 30 | 57.3 ± 28 | 46.8 ± 31 | 44.4 ± 29 | 29.4 ± 27 | 32.7 ± 20 |  |  |  |  |  |  |
| CC(C)CCC(=O)O [4-Methylvaleric acid] |  | 58.6 ± 30 |  | 41.8 ± 30 |  | 20.8 ± 22 | 30.9 ± 30 | 32.5 ± 25 | 43.3 ± 20 |  |  |  |
| CC1=CC(=O)CC(C)(C)C1=O [4-Oxoisophorone] | 49.2 ± 26 | 34 ± 28 | 49.7 ± 28 | 44.2 ± 28 | 47.7 ± 25 | 55 ± 21 |  |  |  |  |  |  |
| C=CCCC(=O)O [4-Pentenoic acid] | 80.5 ± 22 | 65 ± 29 | 48.1 ± 34 | 44.9 ± 32 | 14.1 ± 18 | 15.7 ± 18 |  |  |  |  |  |  |
| C=CCc1ccc(OC)c(OC)c1 [4-allyl-1,2-dimethoxy benzene] | 37.5 ± 29 | 17.2 ± 21 | 45.6 ± 30 | 39.8 ± 29 | 54.4 ± 25 | 55.3 ± 24 |  |  |  |  |  |  |
| COc1cc(C(=O)O)ccc1O [4-hydroxy-3-methoxybenzoic acid] | 28.8 ± 29 |  | 45.4 ± 24 |  | 44.1 ± 23 |  |  |  |  | 65.3 ± 26 | 51.9 ± 29 | 54.7 ± 28 |
| CCCc1ccc(O)cc1 [4-propylphenol] | 67.3 ± 24 | 38.2 ± 30 | 39 ± 33 | 43.6 ± 27 | 36.7 ± 24 | 47.7 ± 21 |  |  |  |  |  |  |
| c1cnc2c(n1)CCCC2 [5,6,7,8-Tetrahydroquinoxaline] |  | 68.2 ± 24 |  | 65.5 ± 28 |  | 55.6 ± 25 | 40.3 ± 31 | 44.4 ± 26 | 42.9 ± 27 |  |  |  |
| CCC1OC(=O)C(O)=C1C (stereo not drawn) [5-Ethyl-3-hydroxy-4-methyl-2(5H)-furanone (replicate)] |  | 44.9 ± 30 |  | 54.2 ± 32 |  | 65.2 ± 22 | 58.9 ± 32 | 64.6 ± 32 | 67.5 ± 26 |  |  |  |
| CCC1OC(=O)C(O)=C1C (stereo not drawn) [5-Ethyl-3-hydroxy-4-methyl-2(5H)-furanone] |  | 36.6 ± 31 |  | 44.9 ± 29 |  | 54.4 ± 22 | 48.1 ± 32 | 59.7 ± 34 | 64 ± 22 |  |  |  |
| C=CCCCCO [5-Hexen-1-ol] | 62.2 ± 32 | 26 ± 25 | 43.7 ± 33 | 42.6 ± 30 | 48 ± 28 | 49.2 ± 23 |  |  |  |  |  |  |
| C/C=C/C(=O)[C@H](C)CC [5-Methyl-2-hepten-4-one] |  | 69.2 ± 27 |  | 45.1 ± 31 |  | 45.3 ± 28 | 26 ± 28 | 40.8 ± 31 | 64.7 ± 25 |  |  |  |
| Cc1ccc(C=O)o1 [5-Methylfurfural] | 59 ± 31 | 17.9 ± 24 | 52.6 ± 31 | 36 ± 29 | 59.3 ± 24 | 45.8 ± 23 |  |  |  |  |  |  |
| Cc1cccc2nccnc12 [5-Methylquinoxaline] |  | 49 ± 31 |  | 51.8 ± 31 |  | 45.7 ± 27 | 19.4 ± 29 | 23.7 ± 32 | 48.6 ± 30 |  |  |  |
